# Reference: patent US12668830B2, “Pharmaceutical compositions for prevention and/or treatment of infections and antibacterial-induced dysfunctions” (priority 2018, dated 2026)
# Entries after “also recorded” stand apart in the source; their conditions may differ. Read-outs that look alike come from different tables or passages of the source.
# Legend:
# [1] = test system: E. coli (BW25113 wildtype and mutants); experiment: Minimal Inhibitory Concentration (MIC) calculation; format: cell-based, Escherichia coli; conditions: for Effect on MIC of chloramphenicol / Effect on MIC of ciprofloxacin: vanillin 150 μg/ml, aspirin 500 μg/ml, E. coli; for MIC: Escherichia coli
# Experimental: MICs to all drugs were computed using a logistic fit of growth (OD595 nm for 8 h) over 2-fold serial dilutions of the antibiotic concentrations for all strains used for the high throughput screening and follow-up experiments.
# [2] = test system: E. coli, S. typhimurium and P. aeruginosa; experiment: Screen across all three species / conservation of drug-drug interactions; format: cell-based; conditions: for General effect in combinations: conserved interaction network; for Antibacterial activity / growth inhibition of the drug on its own: single drug, in the screen
# Experimental: Conservation of drug-drug interactions between strains of the same species was assessed by Pearson correlation of the interactions scores ε. For potentially non-conserved drug-drug interactions, the expected fitness distributions of the two strains were taken into account.
# To assess the cross-species conservation of drug-drug interactions, the inventors took into account only drug pairs that were probed in all three species. […] Interactions were then compared across the three species. Cases in which an interaction between drugs changed sign across species (conflicting interactions; ˜7% of all interactions) were excluded from the comparative “across-species” Venn diagram (FIG. 3D). Note that with current analysis a given drug-drug interaction may be conserved across species, but not conserved within the species.
# Conservation at the single drug level was defined based on shared resistance and sensitivity. A strain was considered sensitive to a given drug if one of the drug concentrations inhibited growth for at least 30%.
# [3] = test system: MDR clinical isolates E. coli 124, 1027, 1334; experiment: 8×8 checkerboard assays against MDR clinical isolates; format: cell-based, Escherichia coli
# Description: (§1) For each of the three Gram-negative species profiled in this study, the inventors used two broadly used and sequenced strains: Escherichia coli K-12 BW25113 and O8 IAI1, Salmonella enterica serovar typhimurium LT2 and 14028s, Pseudomonas aeruginosa PAO1 and PA14. To validate selected synergies, the inventors profiled 6 MDR clinical Enterobacteriaceae isolates recovered from human patient specimens: E. coli 124, 1027, 1334 and Klebsiella pneumoniae 718, 929 and 980.
# [4] = test system: MDR clinical isolates Klebsiella pneumoniae 718, 929 and 980; experiment: as above; format: cell-based; conditions: MDR K. pneumoniae isolates
# Description: as §1
# [5] = test system: E. coli BW mutants (ΔacrA, respiration-defective); format: cell-based, Escherichia coli; conditions: ciprofloxacin 70% MIC
# Experimental: Aminoglycosides depend on PMF-energized uptake and thus respiratory complexes; ciprofloxacin is effluxed by AcrAB-TolC. […] Bliss interaction scores (ε) were calculated as in the screen and are represented by the mean and standard deviation across 3-8 replicates. d) Gentamicin and ciprofloxacin antagonism networks for E. coli BW. Nodes represent drugs colored according to targeted cellular process (as FIG. 1a). Full and dashed edges represent antagonistic drug-drug interactions for which intracellular antibiotic concentration was and was not measured, respectively. […] The bars for fluoroquinolones and aminoglycosides account for an extrapolation of antagonistic interactions to all other members of the two classes, assuming they behave the same as ciprofloxacin and gentamicin, respectively.
# The kanamycin resistance cassettes was excised when necessary using the plasmid pCP20. The plasmid used for mdfA overexpression was obtained from the mobile E. coli ORF library.
# E. coli MG1655 = experiment: Intracellular gentamicin concentration with [3H]-gentamicin; format: cell-based, Escherichia coli; conditions: gentamicin 5 μg/ml plus second drug
# Experimental: Intracellular gentamicin was quantified by measuring [3H]-gentamicin (1 mCi/ml; Hartmann Analytic Corp.), as previously described. Overnight cultures of E. coli MG1655 (ther parental stain of BW25113) were diluted 1:1,000 into 5 ml LB and grown to OD595 nm˜0.1. [3H]-gentamicin was diluted in cold gentamicin to get a 5 mg/ml (0.1 mCi/ml) stock solution, which was then added to the culture at a final concentration of 5 μg/ml (0.1 μCi/ml), simultaneously with the second drug: Berberine (200 μg/ml), Erythromycin (15 μg/ml), Metformin (13000 μg/ml), Procaine (6000 μg/ml), Loperamide (400 μg/ml), Benzalkonium (5 μg/ml). […] Cultures were then incubated at 37° C. on a rotary shaker. At 0, 0.5, 1, 1.5 and 2 h time-points, 500 μl aliquots were removed and applied to a 0.45 μm-pore-size HAWP membrane filter (Millipore) pretreated with 1 ml of unlabeled gentamicin (250 μg/ml). Filters were washed with 10 ml of 1.5% NaCl, placed into counting vials, and dried for 30 min at 52° C. 8 ml of liquid scintillation were then added to the dried filters and vials were incubated overnight at room temperature before being counted for 5 min. Gentamicin uptake efficiency is expressed as total accumulation of gentamicin (ng) per 108 cells, and plotted here for the final timepoint (2 h) for simplicity.
# [6] = test system: E. coli BW and E. coli iAi1; experiment: Benchmarking 8×8 checkerboard assays (Bliss / Loewe additivity); format: cell-based, Escherichia coli; conditions: 8×8 checkerboards
# Description: For combinations between ß-lactams for which high-resolution 8×8 checkerboards with sufficient growth inhibition was available in the validation dataset, Loewe additivity was used to confirm the interactions. Drug-drug interactions were inferred by the shape of the isoboles (lines of equal growth) in two-dimensional drug concentration plots. […] To interpolate IC50 concentrations (or other ICn %), a logistic model was used to fit the growth for each concentration of the first drug across different concentrations of the second drug. The null-hypothesis of this model is represented by the additivity line: a linear isobole connecting equal individual IC's by the two drugs.
# As in the screen, growth was assessed based on OD595 nm at early stationary phase for the no drug controls. The time-points used in the screen were used again here for screen strains, whereas 8 hours were used for all E. coli and K. pneumoniae MDR isolates. Fitness was calculated by dividing OD595 nm after single or double drug treatment by no drug treatment for each individual checkerboard. Bliss scores (ε) were calculated for all concentration ratios tested per drug combination, resulting in 49 ε values per drug pair. […] Antagonism was called when the median of the & distribution was above 0.1 or the Q3 was above 0.15. […]
# AcrA = experiment: Immunoblot analysis for AcrA protein quantification; format: cell-based, Escherichia coli; conditions: vanillin 150 μg/ml; marA-dependent
# Experimental: Overnight cultures of E. coli BW25113 and the ΔmarA mutant were diluted 1:1,000 into 50 ml LB containing 500 μg/ml aspirin, 150 μg/ml vanillin or DMSO (drugs solvent control), followed by growth with agitation at 37° C. to OD595 nm˜0.5. Cells were washed in PBS containing corresponding drugs or DMSO, then resuspended to match OD595 nm=1. Cell pellets were resuspended in Laemmli buffer and heated to 95° C. for 3 minutes followed by immunoblot analysis with a-AcrA polyclonal antiserum (gift from K. M. Pos) at 1:200,000 dilution. Primary antiserum was detected using anti-rabbit HRP (A0545 Sigma) at 1:5,000 dilution. Pixel densities of bands were quantified using ImageJ. At least five different biological replicates were blotted and summarized by their mean and standard deviation.
# E. coli BW25113 = experiment: Intracellular spectinomycin concentration with [3H]-spectinomycin; format: cell-based, Escherichia coli; conditions: vanillin 150 μg/ml; mdfA-dependent
# Experimental: Intracellular spectinomycin was quantified by measuring [3H]-spectinomycin (1 μCi/mg; Hartmann Analytic Corp.). Overnight cultures of E. coli BW25113 were diluted 1:1,000 into 1 ml LB with and without vanillin (150 μg/ml) and grown to OD595 nm˜0.5. 50 μg/ml [3H]-spectinomycin:spectinomycin 1:100 was added and the cultures were incubated for 1 h. Cultures were pelleted, washed twice with PBS with 50 μg/ml non-labeled spectinomycin, re suspended in 1% SDS and incubated for 20 min at 85° C. The lysate was mixed with 8 ml liquid scintillation (Perkin Elmer ULTIMA Gold) and counted for 1 min using a Perkin Elmer Tri-Carb 2800TR. Measured radioactivity was normalized to cell number as measured by OD595 nm.
# marA = experiment: Quantitative RT-PCR of marA expression; format: cell-based, Escherichia coli; conditions: vanillin 150 μg/ml
# Experimental: Overnight cultures of E. coli BW25113 and the marR deletion mutant were diluted 1:2,000 into 20 ml LB and grown at 37° C. to OD595 nm˜0.2. Aspirin or vanillin were added to the cultures to 500 and 150 μg/ml final concentration respectively (DMSO was added in the control), followed by a 30 min incubation period at 37° C. with agitation. Cells were harvested and RNA extraction was done with the RNeasy Protect Bacteria Mini Kit (Qiagen) according to manufacturer's directions. cDNA was prepared for qRT-PCR using SuperScript™ III Reverse Transcriptase (Thermo Fisher Scientific). marA and mdfA expression levels were estimated by quantitative RT-PCR using SYBR™ Green PCR master mix following the manufacturer's instructions (Thermo Fisher Scientific). Primer sequences for marA and recA are previously described. All experiments were conducted in at least three biological replicates, and relative expression levels were estimated according to Livak et al., using recA expression as reference.
compound,measurement,setting,value
"CC(=O)Oc1ccccc1C(=O)O [aspirin, acetylsalicylic acid]",Effect on MIC of chloramphenicol,[1],increase
same,Effect on MIC of ciprofloxacin,[1],increase
CCN(CC)CCOC(=O)c1ccc(N)cc1 [procaine],General effect in combinations,[2],general potentiating effect
same,Antibacterial activity / growth inhibition of the drug on its own,[2],did not inhibit bacterial growth on its own
same,Effect on activity of doxycycline,[3]; MDR E. coli isolates,resensitized
same,Effect on activity of fusidic acid,[3]; MDR E. coli isolates,resensitized
same,Effect on activity of doxycycline,[4],resensitized
same,Effect on activity of fusidic acid,[4],resensitized
C[n+]1ccc(-c2cc[n+](C)cc2)cc1 [paraquat],Antagonism with ciprofloxacin in mutant,[5],resolved
CN[C@@H]1[C@H](O)[C@H](NC)[C@H]2O[C@@]3(O)C(=O)C[C@@H](C)O[C@H]3O[C@@H]2[C@H]1O [spectinomycin],Spectinomycin MIC change upon addition of vanillin,"[1]; 100 μg/ml vanillin, wildtype E. coli BW and knockouts of AcrAB-TolC members or MarA",decreases
same,MIC,"[1]; BW25113, read-out: MIC of spectinomycin, E. coli, with vanillin (65 μg/ml)",~15 µg/mL
same,MIC,"[1]; BW25113, read-out: MIC of spectinomycin, largely resistant E. coli, without vanillin",> 30 µg/mL
same,Spectinomycin MIC change,[1]; deletion of mdfA,increased
same,Spectinomycin sensitivity (dose response),"[1]; overexpression of mdfA (pmdfA) vs E. coli BW, MIC does not change",increased spectinomycin sensitivity
same,Increase of spectinomycin MIC,[1]; with 500 μg/ml aspirin,~3 fold
same,Decrease of spectinomycin MIC,"[1]; with vanillin, mild overexpression of mdfA (pmdfA), comparing to MIC of combination in wildtype",~2 fold
COc1cc(/C=C/C(=O)CC(=O)/C=C/c2ccc(O)c(OC)c2)ccc1O [curcumin],Antagonism with ciprofloxacin in mutant,[5],remain largely intact
COc1ccc(CCN(C)CCCC(C#N)(c2ccc(OC)c(OC)c2)C(C)C)cc1OC (stereo not shown) [verapamil],General effect in combinations,[2],general potentiating effect
benzalkonium,Antagonism with ciprofloxacin in mutant,[5],remain largely intact
same,Effect on intracellular gentamicin concentration,E. coli MG1655,decreases
"CCN1CCN(C(=O)N[C@@H](C(=O)N[C@@H]2C(=O)N3[C@@H]2SC(C)(C)[C@@H]3C(=O)O)c2ccccc2)C(=O)C1=O [Piperacillin, piperacillin]",Growth inhibition reached by single drug,[6],did not reach 50% growth inhibition
COc1cc(C=O)ccc1O [vanillin],AcrA protein levels,AcrA,increases
same,Antibacterial activity / growth inhibition of the drug on its own,[2],no antibacterial activity
same,Effect on MIC of chloramphenicol,[1],increase
same,Effect on MIC of ciprofloxacin,[1],increase
same,Effect on intracellular spectinomycin concentration,E. coli BW25113,increased; also recorded: accumulation
same,Effect on activity of spectinomycin,[3]; E. coli MDR isolates,potentiated
same,marA expression,marA,overexpression
Cn1c(=O)c2c(ncn2C)n(C)c1=O [caffeine],Antagonism with ciprofloxacin in mutant,[5],resolved
"CN(C)C(=O)C(CCN1CCC(O)(c2ccc(Cl)cc2)CC1)(c1ccccc1)c1ccccc1 [Loperamide, loperamide]",General effect in combinations,[2],general potentiating effect
same,Effect on activity of colistin,[3]; MDR E. coli isolates,potentiated
same,Effect on activity of doxycycline,[3]; MDR E. coli isolates,potentiated
same,Effect on activity of colistin,[4],potentiated
same,Effect on activity of doxycycline,[4],potentiated
